The source of these data is PubChem BioAssay AID608 (Sanford-Burnham Center for Chemical Genomics, 2007).

Each structure is given as a SMILES string. The source made the active and inactive calls. How the calls were made is not given here.

The target of this assay is Peptidyl-prolyl cis-trans isomerase FKBP1A (Homo sapiens) (UniProt P62942). Nature of the assay: FKBP12 binders, biophysical, NMR detection (AID 608). The following applies: NMR binding, purified FKBP12.
Sequence of Peptidyl-prolyl cis-trans isomerase FKBP1A (Homo sapiens) (P62942 whole entry, looked up): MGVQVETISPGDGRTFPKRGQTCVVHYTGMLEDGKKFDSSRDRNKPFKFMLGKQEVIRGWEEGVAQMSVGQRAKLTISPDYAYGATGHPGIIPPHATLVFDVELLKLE
On to `Cc1ccc(S(=O)(=O)/N=C2\NC(=O)CS2)cc1`, for which the Kd was > 4 mM (inactive).

On to `O=C(Nc1ccccc1)Nc1ccccc1`, for which the Kd is > 4 mM (inactive).

Regarding `Cc1nnc2sc(-c3ccco3)nn12`, the Kd is > 4 mM (inactive).

As to `CN(C)Cc1c(N)cccc1O`, the Kd is > 4 mM (inactive).

With `O=[N+]([O-])c1ccc(/C=N/c2ncn[nH]2)cc1`, the Kd is > 4 mM (inactive).

On to `COC(=O)c1c(C)cc(OC(=O)c2c(C)cc(O)c(C=O)c2O)c(C)c1O`, for which the Kd is > 4 mM (inactive).

Consider `CCSc1nc(N)c(NC(=O)c2ccco2)c(=O)[nH]1`, for which the Kd is > 4 mM (inactive).

`CC(=O)Nc1nc2c(s1)C(=O)NCCC2`: the Kd is > 4 mM (inactive).

In the case of `OC1CC(c2ccccc2)NC2(CCCC2)C1` (centres undefined), the Kd is > 4 mM (inactive).

Turning to `O=C(Nc1ccon1)c1cccc(Cl)c1`, the Kd is > 4 mM (inactive).

Take `CC1=NN(c2ccc(C)cc2)C(=O)C1`: the Kd was > 4 mM (inactive).

With `Nc1nnc(SCc2ccc(F)cc2)s1`, the Kd was > 4 mM (inactive).

Regarding `O=C1C2C3C=CC(C3)C2C(=O)N1CCO` (centres undefined), the Kd is > 4 mM (inactive).

In the case of `CSc1ccccc1NC(=O)c1ccoc1C`, the Kd is > 4 mM (inactive).

In the case of `Cc1nnc(NC(=O)C(C)Sc2nncn2C)s1` (centres undefined), the Kd is > 4 mM (inactive).

In the case of `O=C(O)CNC(=O)c1ccccc1Cl`, the Kd is > 4 mM (inactive).

As to `Oc1cccc2[nH]ccc12`, the Kd was > 4 mM (inactive).

As to `Cc1cc(C(=O)NCc2cccnc2)no1`, the Kd is > 4 mM (inactive).

As for `CCc1c(C(=O)N2CCOCC2)csc1C`, the Kd was > 4 mM (inactive).

On to `Nc1cccc(S(=O)(=O)N2CCCCC2)c1`, for which the Kd was > 4 mM (inactive).

With `O=C(NN1CCOCC1)c1cccs1`, the Kd was > 4 mM (inactive).

Regarding `CC(O)C(=O)N/N=C/c1ccccc1` (centres undefined), the Kd is > 4 mM (inactive).

On to `O=C1CCNc2cc3ccccc3cc21`, for which the Kd is > 4 mM (inactive).

As for `Cc1noc(C)c1C(=O)Nc1ccccc1-c1ccccc1`, the Kd was > 4 mM (inactive).

Consider `CCOC(=O)c1ccc(F)c(F)c1`, for which the Kd is > 4 mM (inactive).

Consider `c1ccc(Cc2nn3c(-c4ccncc4)nnc3s2)cc1`, for which the Kd is > 4 mM (inactive).

With `COc1ccc2c(c1)c1n[nH]c(=S)nc1n2C`, the Kd was > 4 mM (inactive).

With `COc1ccccc1-c1nc(-c2ccc(C)nc2OC)no1`, the Kd was > 4 mM (inactive).

For `CNC(=S)N1CCN(C(=O)c2ccco2)CC1`, the Kd was > 4 mM (inactive).

In the case of `CCOC(=O)C1CCN(c2ncnc3nc[nH]c23)CC1`, the Kd is > 4 mM (inactive).

With `O=C1CS/C(=N/N=C/c2cccs2)N1`, the Kd is > 4 mM (inactive).

On to `COc1ccc(C(=O)CC(=O)O)c2c1C=CC(C)(C)O2`, for which the Kd is > 4 mM (inactive).

Take `CC(=O)O[C@@H]1CC2C(C)(C)[C@H](O)C=C[C@]2(C)C2CC[C@]3(C)C(=CC(=O)O[C@H]3c3ccoc3)[C@@]21C` (some centres undefined): the Kd is > 4 mM (inactive).

Take `COc1cc2c(c(OC)c1OC)-c1ccc(O)c(=O)cc1[C@@H](NC(C)=O)CC2`: the Kd is > 4 mM (inactive).

For `O=C(O)CNS(=O)(=O)c1cccs1`, the Kd is > 4 mM (inactive).

As for `O=c1cnnc(SCCc2ccccc2)[nH]1`, the Kd is > 4 mM (inactive).

For `Nc1c(/C=C2\C=Nc3ccccc32)c(=O)nc2scnn12`, the Kd is > 4 mM (inactive).

Regarding `O=C(O)c1cn(-c2ccccc2)nc1-c1cccnc1`, the Kd is > 4 mM (inactive).

As to `CC(=O)c1c(C)n([O-])c2ccccc2[n+]1=O`, the Kd is > 4 mM (inactive).

On to `NS(=O)(=O)c1ccc(NC(=S)NC2CC2)cc1`, for which the Kd is > 4 mM (inactive).

For the molecule `CC(O)c1nc2ccccc2[nH]1` (centres undefined), the Kd was > 4 mM (inactive).

Turning to `NC(=O)C1CCN(C(=O)c2ccco2)CC1`, the Kd was > 4 mM (inactive).

As for `COC(=O)C(O)c1ccccc1` (centres undefined), the Kd is > 4 mM (inactive).

Take `CC(=O)Nc1nnc(-c2ccncc2)s1`: the Kd was > 4 mM (inactive).

On to `Nc1nc(SCc2ccc3c(c2)OCCO3)n[nH]1`, for which the Kd was > 4 mM (inactive).

Take `Cc1ccc(S(C)(=O)=O)s1`: the Kd was > 4 mM (inactive).

`NC(=O)CSc1nc2ncnc(N)c2[nH]1`: the Kd was > 4 mM (inactive).

Take `COC(=O)[C@@H]1OC(=O)C2OC23[C@@]1(C)CCC1[C@]2(C)C(C[C@H](O)[C@]13C)C(C)(C)[C@H](OC(C)=O)C[C@@H]2OC(C)=O` (some centres undefined): the Kd is > 4 mM (inactive).

Consider `O=C(Nc1ccccc1)c1cccc(N2C(=O)CCC2=O)c1`, for which the Kd is > 4 mM (inactive).

On to `Cn1nnc2cc(CN)ccc21`, for which the Kd was > 4 mM (inactive).

As for `NC(=O)CSc1ccc(-c2ccccc2)nn1`, the Kd is > 4 mM (inactive).

Consider `c1ccc(-n2nnnc2-n2cnc3ccccc32)cc1`, for which the Kd is > 4 mM (inactive).

In the case of `COc1ccc2c(c1)OC/C(=C\c1ccc(OC)c(O)c1)C2=O`, the Kd is > 4 mM (inactive).

On to `COC(=O)c1cccc(N)c1`, for which the Kd was > 4 mM (inactive).

Consider `CC(C)(C)Cc1nc(-c2ccccn2)no1`, for which the Kd was > 4 mM (inactive).

For the molecule `COn1c(=O)c(C)[n+]([O-])c2ccccc21`, the Kd is > 4 mM (inactive).

Take `CC(C)c1ccc(SCC(=O)N2CCOCC2C(=O)OCCCc2cccnc2)cc1` (centres undefined): the Kd was 0.0056 mM.

In the case of `O=C(O)C1Cc2c([nH]c3ccccc23)CN1` (centres undefined), the Kd was > 4 mM (inactive).

Consider `O=C(COc1cc(Cl)c(Cl)cc1Cl)N1CCOCC1`, for which the Kd entry was “inactive”.

In the case of `c1ccc(Cn2c(Nn3cnnc3)nc3ccccc32)cc1`, the Kd is > 4 mM (inactive).

As to `O=C(Nc1ccon1)c1ccccc1Cl`, the Kd is > 4 mM (inactive).

As to `Cc1ccc(N2C(=O)CC(=O)NC2=O)cc1`, the Kd is > 4 mM (inactive).

On to `CC1(C)CC[C@]2(C(=O)O)CC[C@]3(C)C(=CCC4[C@@]5(C)CC[C@H](O)[C@@](C)(CO)C5CC[C@]43C)C2C1` (some centres undefined), for which the Kd is > 4 mM (inactive).

As for `CC1CN(C(=O)c2sc3cccc(F)c3c2Cl)CC(C)O1` (centres undefined), the Kd was > 13.6 mM (inactive).

On to `CC(C)=CCc1c(O)cc2occ(-c3ccc4c(c3)OCO4)c(=O)c2c1O`, for which the Kd was > 4 mM (inactive).

Turning to `CC(C)n1c(Nn2cnnc2)nc2ccccc21`, the Kd is > 4 mM (inactive).

As for `Cc1cc(=O)[nH]c(N2CCCCC2)n1`, the Kd was > 4 mM (inactive).

Regarding `CCc1cc(=O)[nH]c(SCC(=O)NCCOC)n1`, the Kd is > 4 mM (inactive).

As for `NC(=NCCC[C@H](N)C(=O)O)NC(CCC(=O)O)C(=O)O` (some centres undefined), the Kd is > 4 mM (inactive).

Regarding `CC(C)=CCCC1(C)C=Cc2c(O)c3c(c(CC=C(C)C)c2O1)OC12C(=CC4CC1C(C)(C)OC2(C/C=C(/C)C(=O)O)C4O)C3=O` (centres undefined), the Kd was > 4 mM (inactive).

In the case of `NC(=O)Cc1nc(-c2ccc(F)cc2)cs1`, the Kd was > 4 mM (inactive).

On to `COc1ccc(C(O)c2nccn2C)cc1` (centres undefined), for which the Kd was > 4 mM (inactive).

On to `NCc1ccccc1N1CCCCC1`, for which the Kd is > 4 mM (inactive).

For the molecule `O=S1(=O)CCC(NC(=S)Nc2ccc(O)cc2)C1` (centres undefined), the Kd is > 4 mM (inactive).

Usually Kd stands for the constant that tells how readily two partners part at equilibrium.
